Earlier results as cited in patent US11919851B2, “Method for producing polyol-based esters of optionally acylated hydroxycarboxylic acids” (IOI Oleo GmbH, priority 2019, dated 2024).

Settings: free acid and its salts; prior art statement

CC(O)CC(=O)O (stereo not shown) [3-hydroxybutyric acid]
adverse effects on oral administration: can cause severe vomiting and nausea
